Consider 20 compounds from US5942521A, “Quinolinone derivative and anti-allergic agent with said quinolinone derivative as the active ingredient” (Dainippon Ink and Chemicals, Inc., priority 1996, dated 1999).

Assay type in all cases: in vivo
For experiment [1], the system named is contact dermatitis induced by picryl chloride. Nature of the experiment: Effect on contact dermatitis induced by picryl chloride in mice. The conditions noted are these: Mus musculus, po, read-out: Inhibition (%) of increase of ear thickness; for inhibition in vivo at 20 mg/kg: test compounds, 20 mg/kg p.o. 12 hours after challenge, ear thickness at 24 hours. The protocol:
Effect on contact dermatitis induced by picryl chloride in mice
The delayed type hypersensitization is inhibited by steroid, but can not be effected by known anti-allergic agents. In the following, the method of the pharmacological test will be explained.
Method: Mice, shaved their abdominal skin on previous day, were immunized by applying 0.1 ml of acetone containing 7 mg of picryl chloride to the skin of the abdomen. 7 days after immunization, the thickness of the ear was measured with a dial thickness gauge, then mice were challenged by painting […] of 1% picryl chloride olive oil solution to each side skin of left ear. 24 hours after challenge, the thickness of the left ear was measured again. The compounds of the present invention (test compounds) suspended in 0.5% MC were forcibly administered orally at a dose of 20 mg/kg 12 hours after challenge. As vehicle control group, only 0.5% MC solution was administered orally, and as positive control group, Prednisolone, steroid hormone, was administered orally at a dose of 10 mg/kg and as negative control group, Tranilast was administered orally at a dose of 200 mg/kg.
Increase (%)=(A-B)/B×100 (Equation 2)
A: thickness of the ear at 24 hours after challenge
B: thickness of the ear before challenge
Inhibition (%)=(C-D)/C×100 (Equation 3)
C: The increase (%) in vehicle control group
D: The increase (%) in test compounds group, positive control group

Experiment [2] has as its system delayed type asthmatic response. In words: Effect on experimental delayed type asthma model in guinea pigs. The conditions noted are these: Prednisolone 10 mg/kg p.o. 2 hours and 16 hours before challenge; AUC of airway resistance 4-8 hours after challenge. The text has this: (§1) Effect on experimental immediate and delayed type asthma model in guinea pigs
(§2) The asthma is typical allergic disease and we carried out this pharmacological test by experimental asthmatic model in guinea pigs in order to confirm that the compounds of the present invention, compound 21, 41 and 46, suppress immediate and delayed type asthmatic response. In the following, the method of the pharmacological test will be explained.
(§3) Method: Male hartley guinea pigs were sensitized by exposured aerosolized ovalbumine (OVA) (1% in saline) for 10 minutes per a day at eight times. The aerosol was generated by an ultrasonic nebulizer (NE-U12, Omuron inc.). One week after final sensitization, the animals were challenged with inhalation of OVA (2% in saline) for 5 minutes. The animals were pretreated with metyrapone (10 mg/kg, i.v.) at 1 and 4 hours before the challenge, and pyrilamine (10 mg/kg, i.p.) at 30 minutes before the challenge. airway resistance in the conscious animals were measured for 1 minute with PULMOS-1(made in Medical Interface Project Station Inc.) at 1 minute, 2, 4, 5, 6, 7, 8 and 23 to 24 hours after the challenge. Compound 21, 41 and 46 (test compound) suspended in 0.5% methylcellulose (MC) solution were given orally at doses of 5, 10 and 20 mg/kg 1 hour before and 3 hours after the challenge. As a positive control group, Prednisolone was given orally at a dose of 10 mg/kg 2 hours and 16 hours before the challenge. As vehicle control group, only 0.5% MC solution was given orally.
(§4) The evaluation of the effect of the compounds on immediate and delayed type asthmatic response was undertaken with percentage of change in airway resistance 1 minute after the challenge and the area under the response curve for percentage of change in airway resistance between 4 and 8 hours after the challenge, respectively. The inhibition (%) of the compounds for immediate and delayed type asthmatic response was calculated according to equation 4 and the result was shown in table 3. Each experimental group consisted of 8 guinea pigs.
(§5) Inhibition (%)=(A-B)/A×100 (equation 4)
(§6) A: percentage of change in airway resistance in vehicle control group
(§7) B: percentage of change in airway resistance in test compound group or positive control group

The test system of experiment [3] is immediate type asthmatic response. Nature of the experiment: Effect on experimental immediate type asthma model in guinea pigs. The conditions noted are these: Prednisolone 10 mg/kg p.o. 2 hours and 16 hours before challenge; airway resistance 1 minute after challenge.
Text: as §1, §2, §3, §4, §5, §6, §7

In experiment [4] the test system is passive cutaneous anaphylaxis (PCA) reaction. Nature of the experiment: Effect on homologous passive cutaneous anaphylaxis (PCA) reaction in rats. The conditions noted are these: Rattus norvegicus, po, 0.5 h; test compounds, 100 mg/kg p.o., 1 hour before induction of anaphylaxis, male wistar rats. The protocol:
Effect on homologous passive cutaneous anaphylaxis (PCA) reaction in rats
This experimental animal model is caused by immediate type allergic reaction, namely, antigen-antibody reaction. In the following, the method of this pharmacological test will be explained.
Method: Male wistar rats (9 weeks old) were intradermally administered 0.05 ml of anti-serum against dinitrophenylated ascaris (DNP-As) into two sites on the shaved dorsal skin. 48 hours later, aminoquinolinone derivatives (test compounds) suspended in 0.5% methylcellulose (MC) were given orally at a dose of 100 mg/kg to the animals. 1 hour after administration of Test compounds, the animals were induced anaphylaxis by injection of saline (1 ml) dissolving 1 mg of trinitrophenylated ascaris (TNP-As) and 5 mg of Evans Blue into the tail vein of the animals. 30 minutes after induction of anaphylaxis, animals were anesthetized by ether and killed by bleeding, and were flayed dorsal skin. The leakage of dye was assessed by measuring the diameter (mean of shortest and longest diameter) of the blue spot on the inside surface of dorsal skin. As vehicle control group, only 0.5% MC solution was administered orally, and as positive control group, Tranilast suspended in 0.5% MC were administered orally at a dose of 200 mg/kg to the animals with the same method as the test compounds groups, The inhibition (%) of PCA reaction was calculated according to equation 1 and the result was shown in Table 1. Each experimental group consisted of 5 rats.
In the conditions of this experiment, it was considered that the compound, which inhibited PCA reaction by over forty (40) percent against that in vehicle control group, was evidently effective for immediate type allergy.
Inhibition (%)=(A-B)/A×100 (Equation 1)
A: leakage of dye in vehicle control group
B: leakage of dye in test compound group or positive control group

In the case of `C[C@]12C=CC(=O)C=C1CC[C@@H]1[C@@H]2[C@@H](O)C[C@@]2(C)[C@H]1CC[C@]2(O)C(=O)CO` [Prednisolone, reference compound], the inhibition in vivo at 10 mg/kg in experiment [1] (24 h) came out at 53%. Further, the “inhibition (%), delayed type asthma” value in experiment [2] is reported as 51%. In experiment [3], the “inhibition (%), immediate type asthma” value amounted to 35%.

Take `CCCCCCNc1ccc2c(O)c(OC)c(=O)n(C)c2c1` [compound 27, 7-hexylamino-3-methoxy-4-hydroxy-1-methyl-2(1H)-quinolinone]: the inhibition in vivo at 20 mg/kg in experiment [1] turned out to be 46%. For the same compound, in experiment [4], the inhibition in vivo at 100 mg/kg was found to be 45%.

For `CCCCCCOc1c(O)c(=O)n(C)c2cc(NCCCC)ccc12` [compound 28, 7-butylamino-3-hydroxy-4-hexyloxy-1-methyl-2(1H)-quinolinone], the inhibition in vivo at 20 mg/kg in experiment [1] stood at 37%. Further, the inhibition in vivo at 100 mg/kg in experiment [4] worked out at 42%.

As to `C=CCOc1c(O)c2ccc(NC)cc2n(C)c1=O` [compound 29, 7-methylamino-3-(2-propenyloxy)-4-hydroxy-1-methyl-2(1H)-quinolinone], the inhibition in vivo at 20 mg/kg in experiment [1] stood at 48%. This compound also showed an inhibition in vivo at 100 mg/kg in experiment [4] of 42%.

As to `CNc1ccc2c(O)c(OCC=C(C)C)c(=O)n(C)c2c1` [compound 30, 7-methylamino-3-prenyloxy-4-hydroxy-1-methyl-2(1H)-quinolinone], the inhibition in vivo at 20 mg/kg in experiment [1] was 52%. The same compound yielded an inhibition in vivo at 100 mg/kg in experiment [4] of 44%.

Consider `CNc1ccc2c(O)c(OC/C=C(\C)CCC=C(C)C)c(=O)n(C)c2c1` [compound 31, 7-methylamino-3-geranyloxy-4-hydroxy-1-methyl-2(1H)-quinolinone], for which the inhibition in vivo at 20 mg/kg in experiment [1] came to 45%. In experiment [4], this compound yielded an inhibition in vivo at 100 mg/kg of 46%.

As to `CCCCCCOc1c(O)c2ccc(N)cc2n(CC)c1=O` [compound 32, 7-amino-3-hexyloxy-4-hydroxy-1-ethyl-2(1H)-quinolinone], the inhibition in vivo at 20 mg/kg in experiment [1] was found to be 48%. The inhibition in vivo at 100 mg/kg in experiment [4] was 44%.

Consider `CCCCOc1c(O)c(=O)n(CCC)c2cc(N)ccc12` [compound 33, 7-amino-3-hydroxy-4-butyloxy-1-propyl-2(1H)-quinolinone], for which the inhibition in vivo at 20 mg/kg in experiment [1] came to 40%. In experiment [4], the inhibition in vivo at 100 mg/kg amounted to 40%.

With `CCCCCCCCCCOc1c(O)c(=O)n(CCC)c2cc(N)ccc12` [compound 34, 7-amino-3-hydroxy-4-decyloxy-1-propyl-2(1H)-quinolinone], the inhibition in vivo at 20 mg/kg in experiment [1] was 37%. The compound further yielded an inhibition in vivo at 100 mg/kg in experiment [4] of 40%.

With `CCCCCCOc1c(O)c2ccc(N(C)C)cc2n(CCCC)c1=O` [compound 35, 7-dimethylamino-3-hexyloxy-4-hydroxy-1-butyl-2(1H)-quinolinone], in experiment [1], the inhibition in vivo at 20 mg/kg amounted to 46%. Moreover, in experiment [4], the inhibition in vivo at 100 mg/kg was determined as 45%.

Take `CCCCn1c(=O)c(O)c(OC)c2ccc(N(C)C)cc21` [compound 36, 7-dimethylamino-3-hydroxy-4-methoxy-1-butyl-2(1H)-quinolinone]: the inhibition in vivo at 20 mg/kg in experiment [1] worked out at 40%. Further, in experiment [4], the inhibition in vivo at 100 mg/kg worked out at 41%.

In the case of `CCCCn1c(=O)c(OCC=C(C)C)c(O)c2ccc(NC)cc21` [compound 37, 7-methylamino-3-prenyloxy-4-hydroxy-1-butyl-2(1H)-quinolinone], the inhibition in vivo at 20 mg/kg in experiment [1] is 45%. Also, in experiment [4], the inhibition in vivo at 100 mg/kg turned out to be 42%.

With `CCCCn1c(=O)c(O)c(OCC=C(C)C)c2ccc(NC)cc21` [compound 38, 7-methylamino-3-hydroxy-4-prenyloxy-1-butyl-2(1H)-quinolinone], in experiment [1], the inhibition in vivo at 20 mg/kg came to 37%. For the same compound, the inhibition in vivo at 100 mg/kg in experiment [4] was found to be 40%.

Regarding `CCCCCCCCOc1c(O)c2ccc(NC(C)=O)cc2n(C)c1=O` [compound 39, 7-acetylamino-3-octyloxy-4-hydroxy-1-methyl-2(1H)-quinolinone], the inhibition in vivo at 20 mg/kg in experiment [1] is 48%. In experiment [4], this compound returned an inhibition in vivo at 100 mg/kg of 50%.

For the compound `CCCCCCOc1c(O)c2ccc(NC(=O)/C=C/c3cc(OC)c(O)c(OC)c3)cc2n(C)c1=O` [compound 43, 7-(4-hydroxy-3,5-dimethoxycinnamoylamino)-3-hexyloxy-4-hydroxy-1-methyl-2(1H)-quinolinone], the inhibition in vivo at 20 mg/kg in experiment [1] was 53%. This compound yielded an inhibition in vivo at 100 mg/kg in experiment [4] of 49%.

As to `CCCCCCCCOc1c(O)c2ccc(NC(=O)/C=C/c3ccc(OC(C)=O)c(OC)c3)cc2n(C)c1=O` [compound 44, 7-(4-acetoxy-3-methoxycinnamoylamino)-3-octyloxy-4-hydroxy-1-methyl-2(1H)-quinolinone], the inhibition in vivo at 20 mg/kg in experiment [1] stood at 53%. Besides, the inhibition in vivo at 100 mg/kg in experiment [4] worked out at 50%.

Take `CCCCCCCCOc1c(O)c2ccc(NC(=O)/C=C/c3ccc(O)c(OC)c3)cc2n(C)c1=O` [compound 45, 7-(4-hydroxy-3-methoxycinnamoylamino)-3-octyloxy-4-hydroxy-1-methyl-2(1H)-quinolinone]: the inhibition in vivo at 20 mg/kg in experiment [1] was found to be 44%. This compound also displayed an inhibition in vivo at 100 mg/kg in experiment [4] of 41%.

For the compound `CCCCCCCCOc1c(O)c2ccc(NCc3ccccc3)cc2n(C)c1=O` [compound 47, 7-benzylamino-3-octyloxy-4-hydroxy-1-methyl-2(1H)-quinolinone], the inhibition in vivo at 20 mg/kg in experiment [1] was determined as 48%. For the same compound, the inhibition in vivo at 100 mg/kg in experiment [4] stood at 40%.

Consider `CCCCCCCCOc1c(O)c2ccc(NCC=C(C)C)cc2n(C)c1=O` [compound 48, 7-prenylamino-3-octyloxy-4-hydroxy-1-methyl-2(1H)-quinolinone], for which the inhibition in vivo at 20 mg/kg in experiment [1] came out at 53%. Besides, the inhibition in vivo at 100 mg/kg in experiment [4] amounted to 50%.

Take `CCCCCCCCOc1c(O)c2ccc(NC(=O)c3ccccc3)cc2n(C)c1=O` [compound 49, 7-benzoylamino-3-octyloxy-4-hydroxy-1-methyl-2(1H1)-quinolinone]: the inhibition in vivo at 20 mg/kg in experiment [1] stood at 43%. The compound also returned an inhibition in vivo at 100 mg/kg in experiment [4] of 46%.
